Legend:
[1] = target: T1, GluN1/GluN2B (Rattus norvegicus, UniProt Q00960); set-up: method as in PMID 23909910; settings: reproduced for comparison; cited from earlier work
T1 construct: GluN2B (NM_012574.1), GluN2C (NM_012575.3), and GluN2D (NM_022797.2) were provided by; expressed in transfected cells; host or cells: Xenopus laevis oocytes (cRNA injection)

[2] = tested on: MDCK-MDR1; set-up: method as in PMID 23909910; settings: cited from earlier work
[3] = target: T2, GluN1/GluN2A (Rattus norvegicus, UniProt Q00959); set-up: method as in PMID 23909910; settings: reproduced for comparison; cited from earlier work
T2 construct: expressed in transfected cells; host or cells: Xenopus laevis oocytes (cRNA injection)

[4] = tested on: Tsc1^± mice; test: Acute epileptic mouse model, EEG recordings of seizures; assay type: in vivo
Procedure: All experiments were conducted in agreement with the requirements of the European Directive 2010/63/EU. Mice were housed in ventilated, light-tight, sound-isolated chambers under a standard 12:12 light/dark cycle (light on at […]) with food and water available ad libitum. C57BL/6J wild-type (Tsc1^+/+) females from Janvier Laboratories (France) were crossed with heterozygote Tsc1^± male mice with the genetic background B6;129S4-Tsc1^tm1.1Djk/Nci. The genotyping of pups issuing from this cross-breeding was performed on tail tissue samples at postnatal day P9. The study was conducted in Tsc1^± male mice at P14–16. Pups from at least three deliveries for each condition were studied to minimize the potential sampling bias.
The DQP derivative 2i was diluted in DMSO at a concentration of 100 mM before being added to 100 to 150 μL of saline solution and intraperitoneally injected in mice. Intraperitoneal injection was administered during the EEG recordings at three different concentrations: 7, 14, and 28 mg/kg to estimate the dose–response relationship.
Experiments were performed on postnatal days of P14 and P16 male Tsc1^± mice. Surgery was performed under isoflurane anesthesia and lidocaine analgesia. During recordings, the head was fixed to the frame of a stereotaxic apparatus by attached bars; animals were surrounded by a cotton nest and heated via a thermal pad (36.6–37.7 °C). A silver chloride reference electrode was placed in the cerebellum. EEG recordings were performed with nonanaesthetized head-restrained Tsc1^± mice. […] Recordings were analyzed offline using Clampfit (Molecular Devices, San Jose) and Origin (MicroCal, Northampton, MA) software. […] During EEG recordings, animals were monitored visually to determine the behavioral correlates of each electrographic epileptic discharge. […]

[5] = target: T3, α1-Glycine (Rattus norvegicus, UniProt P07727); test: Off-target, oocytes, glycine receptor; assay type: cell-based; settings: 1 µM compound; 100 µM glycine
T3 construct: expressed in transfected cells; host or cells: Xenopus oocytes (cRNA injection)
Procedure: (§1) Analysis of Off-target Actions
(§2) Compound (S)-(-)-2i was tested at 1 µM for actions at glycine-activated GluN1/GluN3A (human GluN1-F484A,T518L/GluN3A referred to a GluN1-FA,TL/GluN3A) and rat GluN1-4a/GluN3B in the presence of 0.5 µM CGP-78608. cRNA injection ratios for GluN1/GluN3 were 1:2. Compound (S)-(-)- 2i was also tested for actions at AMPA (rat GluA1, rat GluA2, human GluA3-L531Y), kainate (rat GluK2), nicotinic acetylcholine (rat α7 and α4β2, cRNA ratio 1:1), GABAA (rat α1β2γ2S, cRNA ratio 1:1:1), GABAC (rat ρ1), glycine (rat α1), and purinergic (human P2X) receptors expressed in Xenopus oocytes. cRNA encoding the receptor subunits was synthesized from linear template cDNA using the mMessage mMachine kit (Ambion). Oocytes were injected with 1-5 ng cRNA in a 50 nL volume and incubated in Barth's solution at 15°C for 2-5 days prior to recording. GluK2-expressing oocyte were incubated in 1 mg/ml (10 µM) concanavalin-A for 10 min prior to recording. The cDNAs encoding GABAC and glycine subunits were provided by Dr. D. Weiss (University of Texas Health Science Center at San Antonio). cDNAs encoding nicotinic acetylcholine receptor subunits were provided by Drs. […]
(§3) GABA. […] Responses in presence of test compound were expressed as a percent of control. […]

[6] = target: hGluN1-FA,TL/hGluN3A (Homo sapiens, UniProt Q05586+Q8TCU5, F484A/T518L); test: Off-target, oocytes, GluN1/GluN3A; assay type: cell-based; settings: 1 µM compound; 100 µM glycine
Procedure: as §1, §2, §3

[7] = target: T4, GluK2 (Rattus norvegicus, UniProt P42260); test: Off-target, oocytes, GluK2; assay type: cell-based; settings: 1 µM compound; 100 µM glutamate
T4 construct: expressed in transfected cells; host or cells: Xenopus oocytes (cRNA injection)
Procedure: as §1, §2, §3

[8] = target: α7-nACh (Rattus norvegicus, UniProt Q05941); test: Off-target, oocytes, nicotinic acetylcholine α7; assay type: cell-based; settings: 1 µM compound; 300 µM acetylcholine
Procedure: as §1, §2, §3

Sequence of α7-nACh (Q05941 23-502): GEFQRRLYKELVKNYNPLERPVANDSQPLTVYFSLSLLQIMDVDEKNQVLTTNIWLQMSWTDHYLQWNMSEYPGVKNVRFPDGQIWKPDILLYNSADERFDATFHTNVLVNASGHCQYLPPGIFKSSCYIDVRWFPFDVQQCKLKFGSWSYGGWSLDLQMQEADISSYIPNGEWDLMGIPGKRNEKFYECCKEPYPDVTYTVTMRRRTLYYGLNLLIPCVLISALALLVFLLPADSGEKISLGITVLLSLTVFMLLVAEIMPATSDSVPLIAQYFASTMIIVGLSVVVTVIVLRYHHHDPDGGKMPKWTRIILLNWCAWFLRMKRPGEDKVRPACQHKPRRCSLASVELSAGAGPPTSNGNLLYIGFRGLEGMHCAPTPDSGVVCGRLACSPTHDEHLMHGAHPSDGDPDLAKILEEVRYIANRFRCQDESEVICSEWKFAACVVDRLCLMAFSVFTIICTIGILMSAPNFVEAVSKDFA
Sequence of hGluN1-FA,TL/hGluN3A (Q8TCU5 24-1115, other chains not shown): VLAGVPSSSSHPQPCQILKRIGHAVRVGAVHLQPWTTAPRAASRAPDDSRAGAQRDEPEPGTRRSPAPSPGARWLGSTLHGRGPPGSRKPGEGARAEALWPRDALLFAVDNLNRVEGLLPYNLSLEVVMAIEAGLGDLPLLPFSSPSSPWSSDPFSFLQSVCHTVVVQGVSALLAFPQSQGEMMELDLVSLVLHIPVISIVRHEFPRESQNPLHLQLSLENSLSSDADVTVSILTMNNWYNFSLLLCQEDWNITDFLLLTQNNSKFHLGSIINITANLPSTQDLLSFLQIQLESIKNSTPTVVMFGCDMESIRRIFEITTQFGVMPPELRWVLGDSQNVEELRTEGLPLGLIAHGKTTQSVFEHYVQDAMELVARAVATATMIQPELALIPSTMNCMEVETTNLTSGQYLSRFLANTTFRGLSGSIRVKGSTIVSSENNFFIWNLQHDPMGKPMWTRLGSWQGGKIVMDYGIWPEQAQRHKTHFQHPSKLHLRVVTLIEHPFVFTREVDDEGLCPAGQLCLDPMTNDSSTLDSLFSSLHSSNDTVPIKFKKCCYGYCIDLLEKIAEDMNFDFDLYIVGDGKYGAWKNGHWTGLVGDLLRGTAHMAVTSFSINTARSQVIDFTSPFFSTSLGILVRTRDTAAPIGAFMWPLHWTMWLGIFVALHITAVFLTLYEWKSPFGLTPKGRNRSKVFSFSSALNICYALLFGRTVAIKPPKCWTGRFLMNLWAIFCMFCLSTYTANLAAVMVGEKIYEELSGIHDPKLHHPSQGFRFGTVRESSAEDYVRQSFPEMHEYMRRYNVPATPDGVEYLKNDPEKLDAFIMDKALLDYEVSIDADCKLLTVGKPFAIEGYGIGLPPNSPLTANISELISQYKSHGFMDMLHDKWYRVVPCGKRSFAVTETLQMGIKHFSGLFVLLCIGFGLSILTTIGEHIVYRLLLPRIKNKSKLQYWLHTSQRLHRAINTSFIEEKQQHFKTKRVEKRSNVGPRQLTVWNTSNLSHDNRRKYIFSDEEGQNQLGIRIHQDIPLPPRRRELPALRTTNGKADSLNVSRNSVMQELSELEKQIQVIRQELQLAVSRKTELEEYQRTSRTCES
T4 sequence (P42260 32-908): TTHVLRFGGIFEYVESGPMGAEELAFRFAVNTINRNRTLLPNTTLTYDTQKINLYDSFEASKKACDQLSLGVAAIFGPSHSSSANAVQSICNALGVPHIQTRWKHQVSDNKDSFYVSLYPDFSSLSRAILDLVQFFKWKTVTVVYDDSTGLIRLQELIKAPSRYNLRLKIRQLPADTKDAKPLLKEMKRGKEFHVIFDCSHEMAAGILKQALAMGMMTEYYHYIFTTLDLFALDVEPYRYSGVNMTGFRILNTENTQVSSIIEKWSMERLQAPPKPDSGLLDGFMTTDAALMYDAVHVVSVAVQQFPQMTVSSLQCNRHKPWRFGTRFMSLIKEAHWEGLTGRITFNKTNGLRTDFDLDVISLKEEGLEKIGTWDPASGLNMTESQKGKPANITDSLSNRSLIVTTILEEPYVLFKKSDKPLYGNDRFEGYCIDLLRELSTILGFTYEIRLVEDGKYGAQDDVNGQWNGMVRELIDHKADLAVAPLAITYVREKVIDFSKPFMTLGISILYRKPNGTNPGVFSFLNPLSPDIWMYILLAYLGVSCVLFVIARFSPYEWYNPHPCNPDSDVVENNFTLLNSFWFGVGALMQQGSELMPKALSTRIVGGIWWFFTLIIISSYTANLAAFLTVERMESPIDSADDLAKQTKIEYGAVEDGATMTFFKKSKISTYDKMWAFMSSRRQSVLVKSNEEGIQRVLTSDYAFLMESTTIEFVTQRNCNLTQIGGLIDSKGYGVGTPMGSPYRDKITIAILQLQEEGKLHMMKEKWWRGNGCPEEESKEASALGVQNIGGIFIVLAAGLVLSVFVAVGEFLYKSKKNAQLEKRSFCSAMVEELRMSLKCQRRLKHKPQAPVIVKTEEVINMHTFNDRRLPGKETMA
T3 sequence (P07727 29-457): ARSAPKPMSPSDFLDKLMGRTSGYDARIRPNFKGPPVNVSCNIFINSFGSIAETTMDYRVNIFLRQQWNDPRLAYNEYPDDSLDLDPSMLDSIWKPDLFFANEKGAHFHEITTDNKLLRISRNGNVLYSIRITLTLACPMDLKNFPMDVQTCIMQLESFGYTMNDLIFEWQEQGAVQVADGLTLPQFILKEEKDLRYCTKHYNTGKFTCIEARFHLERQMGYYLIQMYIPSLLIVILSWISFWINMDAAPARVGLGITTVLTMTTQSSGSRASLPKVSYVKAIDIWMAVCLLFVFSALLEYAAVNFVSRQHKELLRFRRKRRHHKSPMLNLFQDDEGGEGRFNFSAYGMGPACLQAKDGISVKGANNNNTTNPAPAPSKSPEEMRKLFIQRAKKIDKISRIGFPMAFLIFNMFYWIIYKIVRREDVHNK
T2 sequence (Q00959 23-1464, other chains not shown): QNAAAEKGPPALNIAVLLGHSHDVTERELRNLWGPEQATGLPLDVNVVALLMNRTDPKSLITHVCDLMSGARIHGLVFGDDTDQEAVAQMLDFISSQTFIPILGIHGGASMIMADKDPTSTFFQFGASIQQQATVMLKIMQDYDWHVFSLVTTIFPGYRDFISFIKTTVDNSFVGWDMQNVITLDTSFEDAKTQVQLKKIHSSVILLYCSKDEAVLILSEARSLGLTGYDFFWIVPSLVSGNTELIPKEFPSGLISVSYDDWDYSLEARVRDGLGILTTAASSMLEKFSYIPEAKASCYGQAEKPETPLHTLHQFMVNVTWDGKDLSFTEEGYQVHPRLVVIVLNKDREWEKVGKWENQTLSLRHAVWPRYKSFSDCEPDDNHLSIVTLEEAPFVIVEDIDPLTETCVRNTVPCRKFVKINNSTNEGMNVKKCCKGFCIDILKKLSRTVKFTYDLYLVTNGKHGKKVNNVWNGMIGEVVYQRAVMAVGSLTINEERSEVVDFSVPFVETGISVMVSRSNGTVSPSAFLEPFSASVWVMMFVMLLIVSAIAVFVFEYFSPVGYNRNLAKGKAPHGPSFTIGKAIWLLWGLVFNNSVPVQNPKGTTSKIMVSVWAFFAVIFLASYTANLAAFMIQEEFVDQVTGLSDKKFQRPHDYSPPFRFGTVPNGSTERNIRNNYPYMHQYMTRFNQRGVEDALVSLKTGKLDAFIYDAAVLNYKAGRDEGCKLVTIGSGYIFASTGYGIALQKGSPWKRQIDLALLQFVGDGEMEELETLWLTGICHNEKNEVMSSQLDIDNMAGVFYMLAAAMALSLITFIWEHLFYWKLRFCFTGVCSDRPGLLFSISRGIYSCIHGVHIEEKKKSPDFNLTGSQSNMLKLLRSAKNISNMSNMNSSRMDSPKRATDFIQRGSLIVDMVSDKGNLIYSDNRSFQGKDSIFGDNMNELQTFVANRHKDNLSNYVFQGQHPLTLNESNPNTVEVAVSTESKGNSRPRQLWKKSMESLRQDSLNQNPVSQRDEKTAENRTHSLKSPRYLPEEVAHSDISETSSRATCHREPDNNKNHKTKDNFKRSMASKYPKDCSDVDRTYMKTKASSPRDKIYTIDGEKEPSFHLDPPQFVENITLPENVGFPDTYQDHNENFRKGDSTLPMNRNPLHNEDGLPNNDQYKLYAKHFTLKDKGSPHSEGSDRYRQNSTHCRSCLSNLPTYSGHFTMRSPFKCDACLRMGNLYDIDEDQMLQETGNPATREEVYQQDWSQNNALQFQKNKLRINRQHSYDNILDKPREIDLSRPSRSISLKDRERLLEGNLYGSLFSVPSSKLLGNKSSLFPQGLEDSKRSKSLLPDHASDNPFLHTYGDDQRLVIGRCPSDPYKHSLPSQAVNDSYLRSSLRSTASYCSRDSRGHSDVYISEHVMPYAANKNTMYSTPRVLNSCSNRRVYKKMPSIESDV

O=C(O)CCC(=O)N1N=C(c2c(-c3ccc(Cl)cc3)c3ccccc3[nH]c2=O)CC1c1ccc(Cl)cc1 (centres unmarked) [2a]
I 30 μM / I control GluN2B [1]: 44 ± 1.6 (2,8) % | Papp ([2]; cell-membrane permeability): 0.47 × 10^–6 cm/s | P-glycoprotein (P-gp)-mediated efflux ratio (ER) [2]: 55 | I 30 μM / I control GluN2A [3]: 37 ± 4.6 (2,10) %

O=C(O)CC(F)(F)C(=O)N1N=C(c2c(-c3ccc(Cl)cc3)c3ccccc3[nH]c2=O)CC1c1ccc(Cl)cc1 (centres unmarked) [2i]
effect on spontaneous electrographic seizures ([4]; 14 mg/kg IP, male Tsc1^± mice P14–16, neocortical layers 2/3 and 4): significantly reduced spontaneous electrographic seizures | effect on epileptic events ([4]; 28 mg/kg IP, male Tsc1^± mice P14–16): epileptic events stopped immediately | effect on number of epileptic events ([4]; murine model of TSC-induced epilepsy, abstract): significantly reduced the number of epileptic events

O=C(O)CC(F)(F)C(=O)N1N=C(c2c(-c3ccc(Cl)cc3)c3ccccc3[nH]c2=O)C[C@H]1c1ccc(Cl)cc1 [(S)-(−)-2i]
% control α1-Glycine [5]: 103 ± 2.4% | % control hGluN1-FA,TL/hGluN3A [6]: 95 ± 2.3% | % control GluK2 [7]: 100 ± 1.0% | % control α7-nACh [8]: 105 ± 13.5%

Reference: publication PMC10485906, “Development of a Dihydroquinoline–Pyrazoline GluN2C/2D-Selective Negative Allosteric Modulator of the N-Methyl-D-aspartate Receptor” (ACS Chemical Neuroscience, 2023)
